Where two headings read alike, the source gives them in different places. Bridge positions count the residues as written; N and C are the ends. Square brackets hold non-standard residues; d marks the D form. Peptide text beside a SMILES is read from it. * marks the point of attachment. Ileψ(thiazoline)Cys = CC[C@H](C)[C@H](N)C1=N[C@H](C(=O)*)CS1; dOrn = NCCC[C@@H](N)C(=O)O
How the values were obtained:
Assay type in all cases: cell-based, Escherichia coli
[1] = tested on: E. coli K-12 C600::mTn5gusA-pgfp21; conditions: mid-log phase
Procedure: In the latter set of experiments reaction mixtures included nutrient broth (25% normal strength) in order to facilitate growth during the exposure. […] At various time intervals samples (0.1 mL) were removed and serially diluted either in sterile phosphate buffered saline (pH 7, 0.1M) or lecithin (2% w/v)—tween 80 (3% w/v) broth as a specific neutralizer of quaternary ammonium biocides (Wright, et al., J. App. Bacterial. 62:309-314, 1986). Samples of appropriate dilutions were plated, in triplicate, onto nutrient agar and colonies counted after 16 hour incubation at 37° C. Survival was expressed relative to untreated control suspensions.
(§1) When cells were required for culture and/or susceptibility determinations collections were made of discrete fractions of cells within the upper 1 and 5%, and the lower 1, 5 and 10% of fluorescence intensity. Control populations consisted of the entire population of cells having been passed through the cytometer and sorter. Cell sort rates of circa 10^3/sec were deployed enabling collection of circa 10^4-5 cfu within 10 minutes. Cell concentrations were adjusted from the cytometer count by dilution with fresh PBS. Suspensions of collected cells were used immediately for microbiological analysis.
Collections of poorly fluorescent cells from mid-log phase cultures were made and susceptibility re-determined towards tetradecylbenzalkonium chloride, and towards various other treatment agents.

[2] = tested on: E. coli K-12 C600::mTn5gusA-pgfp21; experiment: Time-dependent survival of FACS-sorted fractions exposed to tetradecylbenzalkonium chloride
Procedure: In the latter set of experiments reaction mixtures included nutrient broth (25% normal strength) in order to facilitate growth during the exposure. This was necessary in order to get adequate killing by β-lactam antibiotics. At various time intervals samples (0.1 mL) were removed and serially diluted either in sterile phosphate buffered saline (pH 7, 0.1M) or lecithin (2% w/v)—tween 80 (3% w/v) broth as a specific neutralizer of quaternary ammonium biocides (Wright, et al., J. App. Bacterial. 62:309-314, 1986). Samples of appropriate dilutions were plated, in triplicate, onto nutrient agar and colonies counted after 16 hour incubation at 37° C. Survival was expressed relative to untreated control suspensions.
as §1
The FACS vantage was also deployed to separate populations of cells, from stationary phase cultures, corresponding to the lower (1, 5 and 10%) fluorescence intensity cells and the upper (1 and 5%) fluorescence intensity cells (FIG. 1). These cells were immediately subjected to exposure to tetradecyl-benzalkonium chloride (3.68 μg/mL) for various times up to 20 minutes. After neutralization in lecithin-tween 80 broth the numbers of surviving cells was determined by plate count. In all instances the shapes of the survival curves were non-linear indicating an initial rapid phase of killing followed by a plateau phase. […] Survival beyond 10 minutes exposure therefore reflected the presence of non-susceptible cells.

[3] = tested on: E. coli CC118 overexpression and suppression mutants; experiment: Antimicrobial susceptibility of conditional overexpression and antisense suppression strains (cetrimide challenge); conditions: relative to parental E. coli CC118, 9 μg/ml cetrimide 1 h
Procedure: Conditional overexpression and anti-sense suppression strains of E. coli (Table 14) were grown as liquid cultures in nutrient broth. Expression of target sense and antisense sequences was induced by addition of IPTG (Bioline), during early exponential phase, to a final concentration of 0.1 mM. Cells were grown until mid-late exponential (1.75 h after IPTG addition) or to stationary phase (14.5 h after ITPG addition), and harvested by centrifugation (10,000 x g, 10 min) at 4° C. The supernatants were decanted and the pellets suspended into equal volumes of PBS. The centrifugation and washing steps were repeated twice, after which the pellets were re-suspended in PBS to an optical density (OD470 nm) of 1.0, corresponding to approximately 1-2×10^8 cfu/ml mid-exponential or stationary phase cells.
Cells were exposed to 9 μg/ml cetrimide USP for 1 hr in PBS with final concentration of 5×10^7 cells/ml. Controls without the addition of the biocide containing the same concentration of cells and PBS were run in parallel. Following incubation samples (0.1 ml) were removed and serially diluted in lecithin (2% w/v)—tween 80 (3% w/v) broth as a specific neutralizer of quaternary ammonium biocides (Wright, et al., J. Appd. Bacteriol, 62, 309-314, 1986). Samples of appropriate dilutions were plated, in triplicate, onto nutrient agar and colonies counted after 16 h incubation at 37° C. Survival was expressed relative to untreated control suspensions that were similarly treated with IPTG. […] The susceptibility of the parental strain E. coli (CC118 towards cetrimide USP was investigated in the same experiments and was used as a reference to determine the effect of overexpression and antisense suppression of target sequences.

[4] = tested on: E. coli K-12 C600::mTn5gusA-pgfp21 intergenic knockouts; experiment: Susceptibility of putative intergenic knockouts towards cetrimide USP
From the text: Intergenic knockouts were made to E. coli K-12 C600::mTn5gusA-pgfp21 with respect to IG216, IG477, IG870, IG873, IG1602, IG1604 and IG1484 using the protocol described by Datsenko, et al. (Proceedings of the National Academy of Sciences of the United States of America 97, 6640-6645, 2000). Plasmid pKD3 was used as a template to generate PCR products with a selectable antibiotic resistance marker (chloramphenicol) and 40 nt homology extensions relating the genes flanking each targeted intergenic region. Modifications of the method included a 10-fold increase in the concentration of L-arabinose (10 mM) for induction of λ Red genes in the helper plasmid pKD46, and 50-fold increases in the amount of PCR product (500 ng) used to transform E. coli K-12 C600 containing pKD46. Further amendments to the method were associated with recovery of transformants following electroporation. […]
Putative intergenic knockouts were grown as liquid culture in nutrient broth, harvested at mid-exponential phase, washed in PBS as described in section 2.1 (a) and adjusted to 1×10^5 cfu/ml in PBS. […] The viability of cells in the antimicrobial and control tubes was monitored after 1 hour incubation at 37° C. at 200 rpm in an orbital shaker. […]

For NCC[C@H](O)C(=O)N[C@@H]1C[C@H](N)[C@@H](O[C@H]2O[C@H](CN)[C@@H](O)[C@H](O)[C@H]2O)[C@H](O)[C@H]1O[C@H]1O[C@H](CO)[C@@H](O)[C@H](N)[C@H]1O [Amikacin, amikacin], the “percentage survival relative to untreated controls” value ([1]; 0-5% FI fraction, amikacin 0.75 μg/ml, 1 hour, SD in parenthesis) was 68 (17) %, the “percentage survival relative to untreated controls” value ([1]; 95-100% FI fraction, amikacin 0.75 μg/ml, 1 hour, SD in parenthesis) was 32 (0) % and the “percentage survival relative to untreated controls” value ([1]; Control 0-100% fluorescence fraction, amikacin 0.75 μg/ml, 1 hour, SD of triplicate in parenthesis) was 39 (3.0) %.

With CC[C@H](C)[C@H](N)C1=N[C@H](C(=O)N[C@@H](CC(C)C)C(=O)N[C@H](CCC(=O)O)C(=O)N[C@H](C(=O)N[C@H]2CCCCNC(=O)[C@H](CC(N)=O)NC(=O)[C@@H](CC(=O)O)NC(=O)[C@H](Cc3cnc[nH]3)NC(=O)[C@@H](Cc3ccccc3)NC(=O)[C@H]([C@@H](C)CC)NC(=O)[C@@H](CCCN)NC2=O)[C@@H](C)CC)CS1 [Bacitracin, bacitracin] ({Ileψ(thiazoline)Cys}-L[dE]IK[dOrn]I[dF]H[dD]N; lactam 4-C) the “percentage survival relative to untreated controls” value ([1]; 0-5% FI fraction, bacitracin 0.7 mg/ml, 40 min, SD in parenthesis) was 83 (1.5) %, the “percentage survival relative to untreated controls” value ([1]; 95-100% FI fraction, bacitracin 0.7 mg/ml, 40 min, SD in parenthesis) was 34 (4.6) % and the “percentage survival relative to untreated controls” value ([1]; Control 0-100% fluorescence fraction, bacitracin 0.7 mg/ml, 40 min, SD in parenthesis) was 57 (8.5) %.

For O=C(O)c1cn(C2CC2)c2cc(N3CCNCC3)c(F)cc2c1=O [Ciprofloxacin, ciprofloxacin], the “percentage survival relative to untreated controls” value ([1]; 0-5% FI fraction, ciprofloxacin 0.05 μg/ml, 1 hour, SD in parenthesis) was 44 (2.0) %, the “percentage survival relative to untreated controls” value ([1]; 95-100% FI fraction, ciprofloxacin 0.05 μg/ml, 1 hour, SD in parenthesis) was 35 (3.6) % and the “percentage survival relative to untreated controls” value ([1]; Control 0-100% fluorescence fraction, ciprofloxacin 0.05 μg/ml, 1 hour, SD in parenthesis) was 40 (0) %.

Tetradecylbenzalkonium chloride was tested, and the “proportion of persister cells in the cell fraction” value ([2]; least intensely fluorescent cell fraction (1%), stationary phase, 3.68 μg/mL, exposure up to 20 minutes) was over 80%, the survival of cells ([2]; most fluorescently intense cells, stationary phase, 3.68 μg/mL, after 1 minute exposure) was “eradicated beyond detection” and the “proportion of persisters in mid-log phase compared with stationary phase” value ([2]; poorly fluorescent cells from mid-log phase cultures) was “substantially reduced”.

With cetrimide [Cetrimide USP] the “Fold Change in persister fraction (fold increase)” value ([3]; strain lit (+), exponential phase, IPTG 0.1 mM 1.75 h) was 3.05 fold, the “Fold Change in persister fraction (fold increase)” value ([3]; strain lit (−), exponential phase, IPTG 0.1 mM 1.75 h) was 1.31 fold and the “Fold Change in persister fraction (fold decrease)” value ([3]; strain lit (−), stationary phase, IPTG 0.1 mM 14.5 h) was 4.08 fold decrease. The “Fold Change in persister fraction (fold increase)” value ([3]; strain mcrA (+), exponential phase, IPTG 0.1 mM 1.75 h) was 2.82 fold, the “Fold Change in persister fraction (fold increase)” value ([3]; strain pin (+), exponential phase, IPTG 0.1 mM 1.75 h) was 10.38 fold and the “Fold Change in persister fraction (fold increase)” value ([3]; strain pin (−), exponential phase, IPTG 0.1 mM 1.75 h) was 18.98 fold. For the same compound, the “Fold Change in persister fraction” value ([3]; strain pin (−), stationary phase, IPTG 0.1 mM 14.5 h) was “No persisters detected”, the “Fold Change in persister fraction (fold decrease)” value ([3]; strain yagL (+), exponential phase, IPTG 0.1 mM 1.75 h) was 1.01 fold and the “Fold Change in persister fraction (fold increase)” value ([3]; strain ykgK (+), exponential phase, IPTG 0.1 mM 1.75 h) was 22.85 fold. For the same compound, the “Fold Change in persister fraction (fold decrease)” value ([3]; strain ykgK (−), exponential phase, IPTG 0.1 mM 1.75 h) was 5.35 fold, the “Fold Change in persister fraction” value ([3]; strain ykgK (−), stationary phase, IPTG 0.1 mM 14.5 h) was “No persisters detected” and the “Fold Change in persister fraction (fold decrease)” value ([3]; strain ykgM (+), exponential phase, IPTG 0.1 mM 1.75 h) was 1.65 fold. For the same compound, the “Fold Change in persister fraction (fold decrease)” value ([3]; strain ykgM (−), exponential phase, IPTG 0.1 mM 1.75 h) was 1.83 fold, the “Fold Change in persister fraction” value ([3]; strain ykgM (−), stationary phase, IPTG 0.1 mM 14.5 h) was “No persisters detected” and the “percentage survival relative to untreated controls” value ([1]; 0-5% FI fraction, cetrimide USP 0.5 μg/ml, 1 hour, SD in parenthesis) was 22 (3.7) %. For the same compound, the “percentage survival relative to untreated controls” value ([1]; 95-100% FI fraction, cetrimide USP 0.5 μg/ml, 1 hour, SD in parenthesis) was 2.5 (0.97) %, the “percentage survival relative to untreated controls” value ([1]; Control 0-100% fluorescence fraction, cetrimide USP 0.5 μg/ml, 1 hour, SD in parenthesis) was 18 (3.4) % and the “susceptibility of intergenic knockout clones compared with controls” value ([4]; IG216, IG873, IG1484 and IG1602 knockouts, at both the lower and higher treatment level) was “profoundly changed”. For the same compound, the “susceptibility of intergenic knockout clones compared with controls” value ([4]; all developed clones (IG216, IG477, IG870, IG873, IG1602, IG1604, IG1484), 0.6 and 2.0 μg/ml, 1 hour) was “substantially reduced”.
